According to patent US20020107269A1, “Benzoxazole LPAAT-B inhibitors and uses thereof” (CELL THERAPEUTICS, INC., priority 2000, published 2002):

Key:
LPAAT-β = target: T1, LPAAT-β (Homo sapiens, UniProt O15120); test: LPAAT-β colorimetric assay (DTNB detection of released CoA); format: biochemical; conditions: Sf9 cell membrane overexpressing LPAAT-β; 18:1-CoA and sn-1-18:1 lysoPA; absorbance at 405 nm; read-out: LPAATβ Colorimetric Assay IC50
T1 construct: the full-length human LPAAT-β cDNA was amplified by PCR; poly-histidine tag (N); made in house; host or cells: Sf9 insect cells (baculovirus, pFastBac HTc); membrane fraction used
T1 sequence (O15120 24-278): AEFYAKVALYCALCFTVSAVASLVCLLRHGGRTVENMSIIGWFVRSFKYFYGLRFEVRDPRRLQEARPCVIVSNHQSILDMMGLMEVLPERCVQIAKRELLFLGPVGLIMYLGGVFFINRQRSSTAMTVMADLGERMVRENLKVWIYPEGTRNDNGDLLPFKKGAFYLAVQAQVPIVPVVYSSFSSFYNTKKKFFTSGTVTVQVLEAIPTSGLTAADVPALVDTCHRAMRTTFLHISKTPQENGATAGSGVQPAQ
Description: For the construction of Baculovirus expression vectors, the full-length human LPAAT-β cDNA was amplified by PCR from the DNA template pCE9.LPAAT-β (West et al., DNA Cell Biol. 16:691-701 (1997)) using the primers 5′-TGATATCCGAAGAAGATCTTATGGAGCTGTGGCCGTGTC-3′ (olpb1F) and 5′-CAGGCTCTAG ACTACTGGGC CGGCTGCAC-3′ (olpb1R). The ˜870 bp fragment generated was reamplified by PCR using the primers 5′ CCTACGTCG ACATGGAACAAAAATTGATATCCGAAGAAGATC-3′ (olpb2F) and 5′-CAGGCTCTAG ACTACTGGGC CGGCTGCAC-3′ (olpb1R). The ˜890 bp fragment generated was then cleaved with Sal I and Xba I for insertion into pFastBac™ HTc vector (Life Technologies, Gaithersberg, Md.) between the Sal I and Xba I sites for the generation of the plasmid pFB.LPAAT-β. This plasmid was then transformed into E. coli DH10Bac™ (Life Technologies, Gaithersberg, Md.) for the generation of recombinant Bacmid DNA for transfection into HighFive (Invitrogen, San Diego, Calif.) or SF9 insect cells for the production of recombinant Baculovirus stocks using the protocol described in the Bac-to-Bac® Baculovirus Expression System (Life Technologies, Gaithersberg, Md.), a eukaryotic expression system for generating recombinant baculovirus through site-specific transposition in E. coli. Viral stocks harvested from the transfected cells can then be used to infect fresh insect cells for the subsequent expression of LPAAT-β fusion protein with a poly-histidine tag and a myc-epitope near its N-terminus. The membrane fraction from these Sf9 cells would be the source of LPAAT enzyme.
For the preparation of membranes From Sf9 Cells, all steps are performed on ice or at 4° C. Sf9 cell pellets ([…]) were thawed and resuspended in 1-2 ml of buffer A (20 mM Hepes, pH 7.5, 1 mM DTT, 1 mM EDTA, 20% w/v glycerol, 1 mM Benzamidine, 1 μg/ml soybean trypsin inhibitor (SBTI), 1 μg/ml pepstatin A) w/o DTT but with 1 mM Pefabloc. The cells were lysed by sonication using a Branson Sonifier at output=2, duty cycle=2, 10 pulses each at 10 s. with the tip of small sonicator probe submerged but not touching the walls. DTT was then added to 1 mM from a 1M stock. The samples were centrifuged at 1500 rpm for 5 min. The low speed supernatant was saved and centrifuged (TLA 100.3 rotor, polycarbonate tubes, 2 ml/tube or 1.5 ml/tube minimum) at 100000×g for 1 hr. The high speed pellet was resuspend in Buffer A with a probe sonicator (10 pulses @ output #2 and duty cycle 20%) as a source of LPAAT enzyme.
LPAAT-β catalyzes the transfer of an acyl group from a donor such as acyl-CoA to LPA. The transfer of the acyl group from acyl-CoA to LPA leads to the release of free CoA, which can be reacted with the thiol reagent, 5,5′-dithiobis(2-nitrobenzoic acid) (DTNB). The reaction between DTNB and the free sulfhydryl group from CoA generates a yellow-colored product, 3-carboxylato-4-nitrothiophenolate (CNP), that absorbs at 413 nm. LPAAT-β derived from Sf9 cell membrane overexpressing LPAAT-β were resuspended in HEPES saline buffer (20 mM HEPES pH 7.5, 150 mM NaCl), 1 mg/ml BSA and 72 μl aliquots were distributed into 96-well microtiter plates. 8 μl of compound of interest at 200 μM dissolved in 100% DMSO was added into each well. 20 μl of 1 mM 18:1-CoA and 1 mM sn-1-18:1 lysoPA was then added to each well to initiate the reaction and allowed to run at room temperature for 25 min. 100 μl of 1 mM DTNB in 100% ethanol was then added to each well to quench the reaction and for color development. The absorbance at 405 nm, measured using a spectrophotometer plate reader, is proportional to the activity of LPAAT-β in the sample. This calorimetric assay was used for the high throughput screening of LPAAT inhibitors. […] Compounds that gave a reading of less than 0.06 arbitrary units (indicated by arrow on right margin) were selected for further study.

[1] = tested on: human breast tumor MCF-7 cells; test: Proliferation of MCF-7 cells by CyQUANT analysis; format: cell-based; conditions: MCF-7 cells in microplates, FIG. 5E
Experimental: To determine whether administration of LPAAT-β inhibitor would have any effect on cell proliferation in tissue culture, proliferation of human breast tumor MCF-7 cells in microplates were measured by CyQUANT analysis using a green-fluorescent nucleic acid stain optimized to produce a linear detection range from 50 to 50,000 cells in 200 μl volume (Molecular Probes, Eugene, Oreg.) in the presence of various concentrations of a LPAAT-β inhibitor.

Row | IC50 (LPAAT-β) | SMILES | concentration effective in blocking the proliferation of MCF-7 cells [1]
1 | 110 nM | N#CCC(=O)Nc1ccc(Cl)c(-c2nc3cccnc3s2)c1 [CT-32315, N-(4Chloro-3-thiazolo[5,4,b]pyridin-2-yl-phenyl)-2-cyano-acetamide] | –
2 | – | CCC(=O)Nc1ccc(Cl)c(-c2nc3ccc(C)cc3o2)c1 [N-[4-Chloro-3-(6-methyl-benzooxazol-2-yl)-phenyl]-propionamide] | ≥ 20 µM
